Laboratory results: PubChem BioAssay (NCI)
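96-well plates; 48 h exposure; 5 concentrations. Endpoints by linear interpolation between flanking doses. Not reached: highest tested concentration assigned. GI50: concentration for 50% inhibition of growth. TGI: total growth inhibition.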

What was measured:
Assay in all cases: DTP human tumour cell line panel, 48 h
K-562 leukemia = test system: K-562 leukemia
MCF7 breast = test system: MCF7 breast
OVCAR-4 ovarian = test system: OVCAR-4 ovarian
UACC-257 melanoma = test system: UACC-257 melanoma
KM12 colon = test system: KM12 colon
RXF 393 renal = test system: RXF 393 renal
HOP-62 NSCLC = test system: HOP-62 NSCLC
MALME-3M melanoma = test system: MALME-3M melanoma
CCRF-CEM leukemia = test system: CCRF-CEM leukemia
RPMI-8226 leukemia = test system: RPMI-8226 leukemia

Row | Structure (SMILES) | GI50 (K-562 leukemia) [µM] | TGI (K-562 leukemia) [µM] | GI50 (MCF7 breast) [µM] | TGI (MCF7 breast) [µM] | GI50 (OVCAR-4 ovarian) [µM] | TGI (OVCAR-4 ovarian) [µM] | GI50 (UACC-257 melanoma) [µM] | TGI (UACC-257 melanoma) [µM] | GI50 (KM12 colon) [µM] | TGI (KM12 colon) [µM] | GI50 (RXF 393 renal) [µM] | TGI (RXF 393 renal) [µM] | GI50 (HOP-62 NSCLC) [µM] | TGI (HOP-62 NSCLC) [µM] | TGI (MALME-3M melanoma) [µM] | TGI (CCRF-CEM leukemia) [µM] | TGI (RPMI-8226 leukemia) [µM] | GI50 (MALME-3M melanoma) [µM] | GI50 (CCRF-CEM leukemia) [µM] | GI50 (RPMI-8226 leukemia) [µM]
1 | COc1cc2c(cc1OC)-c1c(c3ccc([N+](=O)[O-])cc3c(=O)n1CCCN=[N+]=[N-])C2=O | 19.6 | > 100 | 0.556 | > 100 | > 100 | > 100 | > 100 | > 100 | > 100 | > 100 | > 100 | > 100 | 29.8 | > 100 |  |  |  |  |  | 
2 | CCN(CC)CCCNc1nccc2c(C)c3[nH]c4ccncc4c(=O)c3cc12 |  | 13 |  |  |  | 3.07 |  | 31.7 |  | 15.5 |  | 3.18 |  | 16.7 | 14.8 | 8.44 | 13.7 |  |  | 
3 | CCCCNP1(NCCCC)=NP(NCCCC)(NCCCC)=NP(NCCCC)(NCCCC)=NP(NCCCC)(NCCCC)=N1 | 0.103 | 3.83 | 0.356 | 3.52 | 0.18 | 18.1 | 1.23 | 5.55 | 0.355 | 4.27 | 1.97 | 10.2 | 1.85 | 6.25 | 2.6 | 12.3 |  | 0.232 | 0.313 | 
4 | COC(=O)c1cc2c([nH]c3ccccc32)c(-c2nc3ccccc3cc2CO)n1 | > 100 | > 100 | > 100 | > 100 | > 100 | > 100 | > 100 | > 100 | > 100 | > 100 | 21.6 | > 100 |  |  | > 100 | > 100 |  | > 100 | 25.5 | 
5 | Nc1nc(N)c(CCCCc2ccccc2)c(/C=C/c2ccc([N+](=O)[O-])cc2)n1 |  |  |  |  |  | 18.4 |  | 22.2 |  | 10.8 |  |  |  | 12.4 | 9.17 | 6.01 | 19 |  |  | 
6 | CCC1=CCC(P(=O)(c2ccccc2)c2ccccc2)CC1C (stereo not drawn) |  | > 100 |  |  |  | > 100 |  | > 100 |  | > 100 |  | > 100 |  |  | > 100 | > 100 | 52.9 |  |  | 
7 | C[C@H]1[C@H](C)CC[C@]2(C(=O)O)CCC3(COC(=O)/C=C/c4ccc(O)cc4)C(=CCC4[C@@]5(C)CC[C@H](O)C(C)(C)C5CC[C@]43C)[C@H]12 (stereo partly drawn) |  | 20.9 |  |  |  | 29.7 |  | 31.5 |  | 16.3 |  | 23.5 |  | 23 | 37.2 | 17.3 | 49.8 |  |  | 
8 | CCCCCC1CC=CC(NC(=O)OCc2ccccc2)C1/C=C/CCCC1OCCO1 (stereo not drawn) |  | > 100 |  |  |  | > 100 |  | > 100 |  | > 100 |  | > 100 |  | > 100 | > 100 | > 100 | > 100 |  |  | 
9 | COc1ccccc1/C=C1\CCC(CN2CCOCC2)C1=O (stereo not drawn) |  | 10.3 |  | 21.8 |  | 35.6 |  | 23.9 |  | 14.5 |  | 30.6 |  | 50.2 | 23.7 | > 21.3 |  |  |  | 
10 | COc1cc(C(=O)c2cnc(-c3ccc4cc[nH]c4c3)[nH]2)cc(OC)c1OC | 0.0173 | 8.74 | 0.0376 | 11.4 | 0.993 | 20 | 2.03 | 17.4 | 0.0313 | 2.16 |  |  | 0.0354 | 6.5 | 9.89 | > 44.6 | 2.77 | 1.61 | 0.0374 | 0.0417
11 | NS(=O)(=O)c1ccc(-n2nc(-c3ccccc3)cc2-c2cc(O)ccc2O)cc1 | 40 | > 100 | 69.4 | > 100 |  |  | 34.4 | > 100 | 38.5 | > 100 | > 100 | > 100 | 90.8 | > 100 |  | > 100 |  |  | > 100 | 
12 | CC1(C)C=C(N2CCN(C3=CC(C)(C)NC(C)(C)C3)CC2)CC(C)(C)N1 |  | > 100 |  |  |  | > 100 |  | > 100 |  | > 100 |  |  |  | > 100 |  | > 100 | > 100 |  |  | 
13 | C=C(C)C1CC=C(C)C(O)([C@@]2(O)C[C@H](C(=C)C)CC=C2C)C1 (stereo partly drawn) |  | 49.4 |  |  |  | 56.2 |  | 42.8 |  | 43.4 |  | 29.1 |  | 35 | 81.8 | 46.3 | 48.7 |  |  | 
14 | CC(/C=C1\CCC(CN(C)C)C1=O)c1cccc(Br)c1 (stereo not drawn) |  | 9.43 |  |  |  | 32.3 |  | 31.6 |  | 23.9 |  | 26.5 |  | 42.2 | 32.4 | 11.4 | 6.08 |  |  | 
15 | CCOP(=O)(OCC)C(NC(c1ccccc1)c1ccccc1)c1ccsc1 (stereo not drawn) | 14.9 | 56.5 | 24.2 | > 100 |  |  |  |  | 16.7 | 37.5 |  |  |  |  |  |  | 22 |  |  | 7.76
16 | c1ccc(N2CCN(CCCN3CCc4c([nH]c5ccccc45)C3c3cccnc3)CC2)cc1 (stereo not drawn) |  | > 65.6 |  |  |  | > 100 |  | > 79.9 |  | > 100 |  | > 100 |  | > 100 | > 77.3 | > 100 | > 100 |  |  | 
17 | O=C(CC1(O)C(=O)Nc2c(Cl)cc(Cl)cc21)c1ccc([N+](=O)[O-])cc1 (stereo not drawn) |  | > 100 |  |  |  | 31.2 |  | > 54.3 |  | > 100 |  | > 100 |  | > 100 | > 60.7 | > 84.3 | > 82.1 |  |  | 
18 | O=C(CS(=O)c1nc2ccccc2nc1-c1ccccc1)Nc1ccc(Cl)cc1 (stereo not drawn) |  |  | 38.7 | > 100 | 61.2 | > 100 | 24.7 | 77.3 | 21.7 | 55.2 | 30.4 | 84.3 | 23.2 | 71.8 | 46.7 | 56.8 | 58.8 | 19.1 | 23.4 | 20.6
19 | CC(O)(c1ccc(OCCC[N+](C)(C)C)cc1)C(C)(O)c1ccc(OCCC[N+](C)(C)C)cc1 (stereo not drawn) |  | > 100 |  |  |  | > 100 |  | > 100 |  | > 100 |  | > 100 |  | > 100 | > 100 | > 100 |  |  |  | 
